For 37 molecules, Ki results are on record in patent publication US10941138B2, “Quinoline and isoquinoline derivatives for treating pain and pain related conditions” (ESTEVE PHARMACEUTICALS, S.A., priority 2016, dated 2021).

Read-outs that look alike come from different tables or passages of the source.

Experiment [1] addresses human α2δ-1 subunit of Cav2.2 calcium channel (Homo sapiens (Human), UniProt P54289). Kind of experiment: Binding assay to human α2δ-1 subunit of Cav2.2 calcium channel ([3H]-Gabapentin). The settings on record: read-out: Ki (nM) alpha2delta Hum. The procedure: Binding Assay to Human α2δ-1 Subunit of Cav2.2 Calcium Channel.
Human α2δ-1 enriched membranes (2.5 μg) were incubated with 15 nM of radiolabeled [3H]-Gabapentin in assay buffer containing Hepes-KOH 10 mM, pH 7.4.
NSB (non specific binding) was measured by adding 10 μM pregabalin. The binding of the test compound was measured at five different concentrations. After 60 min incubation at 27° C., binding reaction was terminated by filtering through Multiscreen GF/C (Millipore) presoaked in 0.5% polyethyleneimine in Vacuum Manifold Station, followed by 3 washes with ice-cold filtration buffer containing 50 mM Tris-HCl, pH 7.4. Filter plates were dried at 60° C. for 1 h and 30 μl of scintillation cocktail were added to each well before radioactivity reading.
(§1) Readings were performed in a Trilux 1450 Microbeta radioactive counter (Perkin Elmer).

Experiment [2] deals with human norepinephrine transporter (NET) (Homo sapiens (Human), UniProt P23975). Nature of the experiment: Binding assay to human norepinephrine transporter (NET) ([3H]-Nisoxetin). The settings on record: Table 2, dual compounds, human NET enriched membranes, read-out: Ki (nM) NET Hum. As for the experimental part: Binding Assay to Human Norepinephrine Transporter (NET).
Human norepinephrine transporter (NET) enriched membranes (5 μg) were incubated with 5 nM of radiolabeled [3H]-Nisoxetin in assay buffer containing 50 mM Tris-HCl, 120 mM NaCl, 5 mM KCl, pH 7.4.
NSB (non specific binding) was measured by adding desipramine 10 μM. The binding of the test compound was measured at five different concentrations. After 60 min incubation at 4° C., binding reaction was terminated by filtering through Multiscreen GF/C (Millipore) presoaked in 0.5% polyethyleneimine in Vacuum Manifold Station, followed by 3 washes with ice-cold filtration buffer containing 50 mM Tris-HCl, 0.9% NaCl, pH 7.4.
Filter plates were dried at 60° C. for 1 h and 30 μl of scintillation cocktail were added to each well before radioactivity reading.
as §1

The mark [3] stands for this setting: Table 1, human α2δ-1 enriched membranes.
Setting [4] is: Table 2, dual compounds, human α2δ-1 enriched membranes.

human α2δ-1 subunit of Cav2.2 calcium channel, sequence (P54289 25-1103): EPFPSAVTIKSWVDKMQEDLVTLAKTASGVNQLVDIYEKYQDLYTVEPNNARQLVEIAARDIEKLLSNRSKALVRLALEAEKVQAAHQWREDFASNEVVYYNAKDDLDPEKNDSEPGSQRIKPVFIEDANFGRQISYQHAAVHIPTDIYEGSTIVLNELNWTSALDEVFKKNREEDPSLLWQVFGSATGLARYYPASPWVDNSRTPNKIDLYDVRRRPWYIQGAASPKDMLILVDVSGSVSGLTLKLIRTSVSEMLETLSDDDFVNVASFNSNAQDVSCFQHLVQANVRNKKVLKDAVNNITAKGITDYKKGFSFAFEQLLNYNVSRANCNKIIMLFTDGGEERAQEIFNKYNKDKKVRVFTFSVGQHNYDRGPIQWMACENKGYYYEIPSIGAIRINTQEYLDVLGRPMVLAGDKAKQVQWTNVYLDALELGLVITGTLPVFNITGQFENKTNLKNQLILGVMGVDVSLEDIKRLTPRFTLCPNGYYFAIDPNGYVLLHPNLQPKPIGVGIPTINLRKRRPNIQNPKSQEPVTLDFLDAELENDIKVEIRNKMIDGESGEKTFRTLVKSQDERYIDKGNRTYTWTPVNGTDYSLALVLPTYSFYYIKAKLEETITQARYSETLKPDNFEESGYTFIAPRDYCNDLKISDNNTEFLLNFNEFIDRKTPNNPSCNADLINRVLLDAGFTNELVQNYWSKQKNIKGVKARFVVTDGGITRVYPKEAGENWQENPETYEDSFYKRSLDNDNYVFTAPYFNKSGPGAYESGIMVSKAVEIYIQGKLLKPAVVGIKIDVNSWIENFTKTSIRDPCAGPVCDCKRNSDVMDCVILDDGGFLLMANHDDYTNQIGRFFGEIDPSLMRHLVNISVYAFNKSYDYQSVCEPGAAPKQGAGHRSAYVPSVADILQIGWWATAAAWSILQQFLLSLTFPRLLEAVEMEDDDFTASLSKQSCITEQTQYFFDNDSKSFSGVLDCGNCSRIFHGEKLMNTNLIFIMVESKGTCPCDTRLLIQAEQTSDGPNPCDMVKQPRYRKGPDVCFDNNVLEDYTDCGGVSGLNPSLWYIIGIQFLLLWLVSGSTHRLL
human norepinephrine transporter (NET), sequence (P23975 whole entry): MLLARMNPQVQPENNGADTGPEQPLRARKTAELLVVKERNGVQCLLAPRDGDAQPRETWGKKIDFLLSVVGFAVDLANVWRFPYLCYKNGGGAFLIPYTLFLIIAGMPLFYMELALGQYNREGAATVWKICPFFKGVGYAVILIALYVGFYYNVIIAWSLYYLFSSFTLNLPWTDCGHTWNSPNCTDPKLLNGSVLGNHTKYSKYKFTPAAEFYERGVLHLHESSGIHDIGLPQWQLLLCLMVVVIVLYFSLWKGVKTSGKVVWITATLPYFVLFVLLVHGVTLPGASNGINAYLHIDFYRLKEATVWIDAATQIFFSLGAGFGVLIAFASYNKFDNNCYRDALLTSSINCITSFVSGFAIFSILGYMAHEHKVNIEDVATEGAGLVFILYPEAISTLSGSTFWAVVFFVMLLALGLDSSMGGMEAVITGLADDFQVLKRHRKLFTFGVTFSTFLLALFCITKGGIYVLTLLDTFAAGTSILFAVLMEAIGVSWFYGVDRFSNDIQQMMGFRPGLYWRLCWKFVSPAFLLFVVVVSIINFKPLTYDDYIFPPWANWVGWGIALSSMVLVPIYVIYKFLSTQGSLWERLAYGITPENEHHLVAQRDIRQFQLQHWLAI

As to `CNCC[C@H](Oc1cccc2ccncc12)c1cccs1` (stereo in doubt) [Example 12, 3-(isoquinolin-8-yloxy)-N-methyl-3-(thiophen-2-yl)propan-1-amine], the Ki in experiment [1] (setting [3]), in experiment [1] (setting [4]) and in experiment [2] was 100 to 500 nM each time.

Take `CNCCC(Oc1cccc2cccnc12)c1cccs1` (stereo not drawn) [Example 1, N-Methyl-3-(quinolin-8-yloxy)-3-(thiophen-2-yl)propan-1-amine]: the Ki in experiment [1] (setting [3]) was ≥ 3000 nM; in experiment [1] (setting [4]), ≥ 3000 nM; in experiment [2], < 100 nM.

On to `CNCCC(Oc1cccc2ncccc12)c1cccs1` (stereo not drawn) [Example 2, N-methyl-3-(quinolin-5-yloxy)-3-(thiophen-2-yl)propan-1-amine], for which the Ki in experiment [1] (setting [3]), in experiment [1] (setting [4]) and in experiment [2] was 100 to 500 nM in each case.

For the molecule `CNCCC(Oc1cccc2cnccc12)c1cccs1` (stereo not drawn) [Example 3, 3-(isoquinolin-5-yloxy)-N-methyl-3-(thiophen-2-yl)propan-1-amine], the Ki was 100 to 500 nM in experiment [1] (setting [3]), 100 to 500 nM in experiment [1] (setting [4]) and < 100 nM in experiment [2].

On to `CNCC[C@H](Oc1cccc2ncccc12)c1cccs1` [Example 9, (S)-N-methyl-3-(quinolin-5-yloxy)-3-(thiophen-2-yl)propan-1-amine], for which the Ki in experiment [1] (setting [3]) is < 100 nM; in experiment [1] (setting [4]), < 100 nM; in experiment [2], 500 to 1000 nM.

`CNCC[C@H](Oc1cccc2ccncc12)c1cccs1` [Example 10, (S)-3-(isoquinolin-8-yloxy)-N-methyl-3-(thiophen-2-yl)propan-1-amine]: the Ki is ≥ 3000 nM in experiment [1] (setting [3]), ≥ 3000 nM in experiment [1] (setting [4]) and 500 to 1000 nM in experiment [2].

For `CNCC[C@H](Oc1cccc2cnccc12)c1cccs1` [Example 11, (S)-3-(isoquinolin-5-yloxy)-N-methyl-3-(thiophen-2-yl)propan-1-amine], the Ki was ≥ 3000 nM in experiment [1] (setting [3]), ≥ 3000 nM in experiment [1] (setting [4]) and < 100 nM in experiment [2].

For the molecule `CNCC[C@@H](Oc1cccc2ccncc12)c1cccs1` [Example 13, (R)-3-(isoquinolin-8-yloxy)-N-methyl-3-(thiophen-2-yl)propan-1-amine], the Ki in experiment [1] (setting [3]), in experiment [1] (setting [4]) and in experiment [2] was 100 to 500 nM throughout.

Take `CNCC[C@@H](Oc1cccc2cnccc12)c1cccs1` [Example 14, (R)-3-(isoquinolin-5-yloxy)-N-methyl-3-(thiophen-2-yl)propan-1-amine]: the Ki in experiment [1] (setting [3]), in experiment [1] (setting [4]) and in experiment [2] was 100 to 500 nM throughout.

As to `CNCC[C@@H](Oc1cccc2ncccc12)c1cccs1` [Example 15, (R)-N-methyl-3-(quinolin-5-yloxy)-3-(thiophen-2-yl)propan-1-amine], the Ki in experiment [1] (setting [3]), in experiment [1] (setting [4]) and in experiment [2] was 100 to 500 nM in each case.

With `CNCCC(Oc1cccc2ncccc12)c1ncc(C)s1` (stereo not drawn) [Example 34, N-methyl-3-(5-methylthiazol-2-yl)-3-(quinolin-5-yloxy)propan-1-amine], in experiment [1] (setting [3]), the Ki was in the range of 500 to 3000 nM.

For the molecule `CNCCC(Oc1cccc2ncccc12)c1ccncc1` (stereo not drawn) [Example 35, N-methyl-3-(pyridin-4-yl)-3-(quinolin-5-yloxy)propan-1-amine], the Ki in experiment [1] (setting [3]) is ≥ 3000 nM.

With `CNCCC(Oc1cccc2ncccc12)c1cccnc1` (stereo not drawn) [Example 36, N-methyl-3-(pyridin-3-yl)-3-(quinolin-5-yloxy)propan-1-amine], the Ki in experiment [1] (setting [3]) was ≥ 3000 nM.

In the case of `CNCCC(Oc1cccc2cnccc12)c1cccc(C(F)(F)F)n1` (stereo not drawn) [Example 37, 3-(isoquinolin-5-yloxy)-N-methyl-3-(6-(trifluoromethyl)pyridin-2-yl)propan-1-amine], in experiment [1] (setting [3]), the Ki was ≥ 3000 nM.

For the molecule `CNCCC(Oc1cccc2ncccc12)c1cccc(C(F)(F)F)n1` (stereo not drawn) [Example 38, N-methyl-3-(quinolin-5-yloxy)-3-(6-(trifluoromethyl)pyridin-2-yl)propan-1-amine], the Ki in experiment [1] (setting [3]) was ≥ 3000 nM.

As for `CNCCC(Oc1cccc2ccncc12)c1ccc(C(F)(F)F)nc1` (stereo not drawn) [Example 39, 3-(isoquinolin-8-yloxy)-N-methyl-3-(6-(trifluoromethyl)pyridin-3-yl)propan-1-amine], the Ki in experiment [1] (setting [3]) was ≥ 3000 nM.

Regarding `CNCCC(Oc1cccc2ncccc12)c1ccc(C(F)(F)F)nc1` (stereo not drawn) [Example 40, N-methyl-3-(quinolin-5-yloxy)-3-(6-(trifluoromethyl)pyridin-3-yl)propan-1-amine], in experiment [1] (setting [3]), the Ki was ≥ 3000 nM.

With `CN(C)CCC(Oc1cccc2cnccc12)c1cccs1` (stereo not drawn) [Example 43, 3-(isoquinolin-5-yloxy)-N,N-dimethyl-3-(thiophen-2-yl)propan-1-amine], the Ki in experiment [1] (setting [3]) was 500 to 3000 nM.

For `CNCC[C@H](Oc1ccc2cnccc2c1)c1cccs1` [Example 55, (S)-3-(isoquinolin-6-yloxy)-N-methyl-3-(thiophen-2-yl)propan-1-amine], the Ki in experiment [1] (setting [3]) was in the range of 500 to 3000 nM.

Consider `CNCCC(Oc1cccc2ncccc12)c1ccsc1` (stereo not drawn) [Example 57, N-methyl-3-(quinolin-5-yloxy)-3-(thiophen-3-yl)propan-1-amine], for which, in experiment [1] (setting [3]), the Ki was 100 to 500 nM.

For `CNCC[C@@H](Oc1cccc2c(C)nccc12)c1cccs1` [Example 59, (R)-N-methyl-3-((1-methylisoquinolin-5-yl)oxy)-3-(thiophen-2-yl)propan-1-amine], in experiment [1] (setting [3]), the Ki was < 100 nM.

Take `CNCC[C@@H](Oc1cccc2ncccc12)c1ccsc1` [Example 63, (R)-N-methyl-3-(quinolin-5-yloxy)-3-(thiophen-3-yl)propan-1-amine]: the Ki in experiment [1] (setting [3]) lay within 100 to 500 nM.

On to `CNCC[C@H](Oc1cccc2ccnc(C)c12)c1cccs1` [Example 64, (S)-N-methyl-3-((1-methylisoquinolin-8-yl)oxy)-3-(thiophen-2-yl)propan-1-amine], for which, in experiment [1] (setting [3]), the Ki was ≥ 3000 nM.

As for `CNCC[C@@H](Oc1cccc2nc(C)cc(C)c12)c1cccs1` [Example 66, (R)-3-((2,4-dimethylquinolin-5-yl)oxy)-N-methyl-3-(thiophen-2-yl)propan-1-amine], the Ki in experiment [1] (setting [3]) is < 100 nM.

With `CNCCC(Oc1cccc2ccncc12)c1nccs1` (stereo not drawn) [Example 70, 3-(Isoquinolin-8-yloxy)-N-methyl-3-(thiazol-2-yl)propan-1-amine], the Ki in experiment [1] (setting [3]) is ≥ 3000 nM.

With `CNCCC(Oc1ccc2cccnc2c1)c1cccs1` (stereo not drawn) [Example 73, N-methyl-3-(quinolin-7-yloxy)-3-(thiophen-2-yl)propan-1-amine], the Ki in experiment [1] (setting [3]) was in the range of 500 to 3000 nM.

For the molecule `CNCCC(Oc1cccc2c(C#N)nccc12)c1cccs1` (stereo not drawn) [Example 75, 5-(3-(Methylamino)-1-(thiophen-2-yl)propoxy)isoquinoline-1-carbonitrile], in experiment [1] (setting [3]), the Ki was in the range of 100 to 500 nM.

Consider `CNCC[C@H](Oc1cccc2ncccc12)c1nccs1` [Example 76, (S)—N-Methyl-3-(quinolin-5-yloxy)-3-(thiazol-2-yl)propan-1-amine], for which the Ki in experiment [1] (setting [3]) was 100 to 500 nM.

For the molecule `CNCC[C@@H](Oc1cccc2ncccc12)c1nccs1` [Example 77, (R)—N-methyl-3-(quinolin-5-yloxy)-3-(thiazol-2-yl)propan-1-amine], the Ki in experiment [1] (setting [3]) lay within 500 to 3000 nM.

`CNCC[C@H](Oc1cccc2ccncc12)c1ccc(F)s1` [Example 80, (S)-3-(5-Fluorothiophen-2-yl)-3-(isoquinolin-8-yloxy)-N-methylpropan-1-amine]: the Ki in experiment [1] (setting [3]) is 500 to 3000 nM.

Consider `CCNCC[C@@H](Oc1cccc2cnccc12)c1cccs1` [Example 88, (R)-N-ethyl-3-(isoquinolin-5-yloxy)-3-(thiophen-2-yl)propan-1-amine], for which the Ki in experiment [1] (setting [3]) lay within 100 to 500 nM.

`CCNCC[C@@H](Oc1cccc2c(C#N)nccc12)c1cccs1` [Example 89, (R)-5-(3-(ethylamino)-1-(thiophen-2-yl)propoxy)isoquinoline-1-carbonitrile]: in experiment [1] (setting [3]), the Ki is < 100 nM.

As to `CCNCC[C@H](Oc1cccc2ncccc12)c1cccs1` [Example 90, (S)-N-ethyl-3-(quinolin-5-yloxy)-3-(thiophen-2-yl)propan-1-amine], the Ki in experiment [1] (setting [3]) lay within 100 to 500 nM.

On to `CCNCC[C@H](Oc1cccc2c(C#N)nccc12)c1cccs1` [Example 91, (S)-5-(3-(ethylamino)-1-(thiophen-2-yl)propoxy)isoquinoline-1-carbonitrile], for which the Ki in experiment [1] (setting [3]) lay within 100 to 500 nM.

For the molecule `CCNCC[C@H](Oc1cccc2cnccc12)c1cccs1` [Example 92, (S)-N-ethyl-3-(isoquinolin-5-yloxy)-3-(thiophen-2-yl)propan-1-amine], in experiment [1] (setting [3]), the Ki was ≥ 3000 nM.

Take `CCNCC[C@@H](Oc1cccc2ncccc12)c1cccs1` [Example 93, (R)-N-ethyl-3-(quinolin-5-yloxy)-3-(thiophen-2-yl)propan-1-amine]: in experiment [1] (setting [3]), the Ki is 100 to 500 nM.

Regarding `CNCC[C@H](Oc1cnc2ccccc2c1)c1cccs1` [Example 95, (S)-N-methyl-3-(quinolin-3-yloxy)-3-(thiophen-2-yl)propan-1-amine], the Ki in experiment [1] (setting [3]) is ≥ 3000 nM.
